Data taken from ChEMBL document CHEMBL1127168, “Synthesis and sar study of novel CCK-B antagonists” (Bioorg Med Chem Lett, 1993).

Tests used:
[1] = target: T1, Gastrin/cholecystokinin type B receptor (Mus musculus, UniProt P56481); test: In vitro inhibition of [125I]- Bolton Hunter CCK-8 binding to Cholecystokinin type B receptor in the mouse cerebral cortex.; format: tissue-based
T1 sequence (P56481 whole entry): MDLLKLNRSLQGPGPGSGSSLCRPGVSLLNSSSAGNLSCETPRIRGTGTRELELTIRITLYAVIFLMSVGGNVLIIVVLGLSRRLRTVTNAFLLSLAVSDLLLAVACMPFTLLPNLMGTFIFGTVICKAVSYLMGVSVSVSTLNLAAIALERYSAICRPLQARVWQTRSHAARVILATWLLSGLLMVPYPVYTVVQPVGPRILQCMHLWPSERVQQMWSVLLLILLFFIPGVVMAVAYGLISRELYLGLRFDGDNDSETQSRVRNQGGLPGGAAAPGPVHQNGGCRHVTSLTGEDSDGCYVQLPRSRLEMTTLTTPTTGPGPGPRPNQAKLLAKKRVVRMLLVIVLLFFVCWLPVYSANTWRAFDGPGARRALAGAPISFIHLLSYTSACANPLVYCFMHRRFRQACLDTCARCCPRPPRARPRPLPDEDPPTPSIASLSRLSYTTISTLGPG

[2] = target: T2, Cholecystokinin receptor type A (Rattus norvegicus, UniProt P30551); test: In vitro inhibition of [125I]- Bolton Hunter CCK-8 to Cholecystokinin type A receptor in the rat pancreas.
T2 sequence (P30551 whole entry): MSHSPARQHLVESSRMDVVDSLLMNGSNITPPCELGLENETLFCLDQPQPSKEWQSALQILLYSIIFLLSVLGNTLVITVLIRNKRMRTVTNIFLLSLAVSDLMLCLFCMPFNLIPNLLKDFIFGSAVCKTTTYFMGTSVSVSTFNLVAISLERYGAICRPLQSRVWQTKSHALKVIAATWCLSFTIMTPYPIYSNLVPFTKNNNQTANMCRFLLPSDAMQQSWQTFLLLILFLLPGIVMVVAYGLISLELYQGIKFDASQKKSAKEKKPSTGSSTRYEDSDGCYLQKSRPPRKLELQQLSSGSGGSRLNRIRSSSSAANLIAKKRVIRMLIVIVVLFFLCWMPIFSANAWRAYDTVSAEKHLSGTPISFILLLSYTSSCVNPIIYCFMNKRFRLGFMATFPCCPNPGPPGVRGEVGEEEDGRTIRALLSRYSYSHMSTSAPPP

[3] = Ratio of inhibition at CCK-A compared to CCK-B receptors.

| IC50 [1] [nM] | IC50 [2] [nM] | Ratio [3] | Compound |
| --- | --- | --- | --- |
| 177 | 6320 | 35.7 | COC(=O)CCCCCCN(CCc1ccccc1)C(=O)[C@](C)(Cc1c[nH]c2ccccc12)NC(=O)OC1[C@H]2C[C@@H]3C[C@@H](C[C@H]1C3)C2 (some centres undefined) |
| 15.5 | 1850 | 119 | C[C@@](Cc1c[nH]c2ccccc12)(NC(=O)OC1[C@H]2C[C@@H]3C[C@@H](C[C@H]1C3)C2)C(=O)NCCc1ccccn1 (some centres undefined) |
| 80.2 | 564 | 7 | CC(Cc1c[nH]c2ccccc12)(NC(=O)OC1[C@H]2C[C@@H]3C[C@@H](C[C@H]1C3)C2)C(=O)N(CCCC(=O)O)CCc1ccccc1 (single isomer, unassigned) |
| 2.31 | 337 | 146 | C[C@@](Cc1c[nH]c2ccccc12)(NC(=O)OC1[C@H]2C[C@@H]3C[C@@H](C[C@H]1C3)C2)C(=O)N(CCc1ccccn1)CC(=O)O (some centres undefined) |
| – | 1080 | – | CC(Cc1c[nH]c2ccccc12)(NC(=O)OC1[C@H]2C[C@@H]3C[C@@H](C[C@H]1C3)C2)C(=O)N(CCc1ccccc1)CC(=O)O (single isomer, unassigned) |
| – | 672 | – | C[C@@](Cc1c[nH]c2ccccc12)(NC(=O)OC1[C@H]2C[C@@H]3C[C@@H](C[C@H]1C3)C2)C(=O)N(CCC(=O)O)CCc1ccccc1 (some centres undefined) |
| – | 25.5 | – | C[C@@](Cc1c[nH]c2ccccc12)(NC(=O)OC1C2CC3CC(C2)CC1C3)C(=O)N[C@@H](CC(=O)O)Cc1ccccc1 (some centres undefined) |
| – | 527 | – | CC(Cc1c[nH]c2ccccc12)(NC(=O)OC1[C@H]2C[C@@H]3C[C@@H](C[C@H]1C3)C2)C(=O)N(CCC(=O)O)CCc1ccccc1 (single isomer, unassigned) |
| 113 | 1980 | 17.5 | COC(=O)CCN(CCc1ccccc1)C(=O)C(C)(Cc1c[nH]c2ccccc12)NC(=O)OC1[C@H]2C[C@@H]3C[C@@H](C[C@H]1C3)C2 (single isomer, unassigned) |
| – | > 1000 | – | C[C@@](Cc1c[nH]c2ccccc12)(NC(=O)OC1[C@H]2C[C@@H]3C[C@@H](C[C@H]1C3)C2)C(=O)N(CCc1ccccc1)CC(=O)O (some centres undefined) |
| 532 | 2330 | 4.4 | COC(=O)CN(CCc1ccccc1)C(=O)[C@](C)(Cc1c[nH]c2ccccc12)NC(=O)OC1[C@H]2C[C@@H]3C[C@@H](C[C@H]1C3)C2 (some centres undefined) |
| 90.9 | 2520 | 27.7 | COC(=O)CN(CCc1ccccn1)C(=O)C(C)(Cc1c[nH]c2ccccc12)NC(=O)OC1[C@H]2C[C@@H]3C[C@@H](C[C@H]1C3)C2 (single isomer, unassigned) |
| 348 | > 1000 | > 2.9 | C[C@@](Cc1c[nH]c2ccccc12)(NC(=O)OC1[C@H]2C[C@@H]3C[C@@H](C[C@H]1C3)C2)C(=O)N(CCCCCCC(=O)O)CCc1ccccc1 (some centres undefined) |
